Data as given in patent US7786141B2 (Vertex Pharmaceuticals Incorporated, priority 2004, dated 2010).
Like-named read-outs stand apart in the source and are kept apart here.

Assays:
M4 muscarinic receptor = target: T1, M4 muscarinic receptor (Homo sapiens, UniProt P08173); assay: Functional mobilization of intracellular calcium (FLIPR) in M4-CHO cells; type: cell-based
T1 construct: expressed in transfected cells; host or cells: CHO (M4-CHO)
T1 sequence (P08173 1-479): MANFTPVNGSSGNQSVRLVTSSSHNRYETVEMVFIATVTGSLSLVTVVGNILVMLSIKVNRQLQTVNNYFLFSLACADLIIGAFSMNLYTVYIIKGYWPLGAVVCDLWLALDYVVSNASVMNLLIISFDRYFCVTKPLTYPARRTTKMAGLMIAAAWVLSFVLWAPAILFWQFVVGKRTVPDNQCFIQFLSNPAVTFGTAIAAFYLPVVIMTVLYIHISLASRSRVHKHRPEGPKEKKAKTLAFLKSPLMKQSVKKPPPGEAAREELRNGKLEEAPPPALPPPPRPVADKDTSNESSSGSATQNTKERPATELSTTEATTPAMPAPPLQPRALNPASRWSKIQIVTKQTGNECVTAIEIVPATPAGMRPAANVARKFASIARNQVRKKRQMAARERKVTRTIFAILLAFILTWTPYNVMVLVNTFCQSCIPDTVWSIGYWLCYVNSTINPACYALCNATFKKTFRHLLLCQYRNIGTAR
In short: (§1)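 Intracellular calcium rise is measured by FLIPR fluorescence over 60 sec in CHO cells carrying human M1 or M4 receptors. Compounds are tested alone as agonists, or pre-incubated 15 min (or co-applied) ahead of carbachol at its EC80 to detect inhibition.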

M1 muscarinic receptor = target: T2, M1 muscarinic receptor (Homo sapiens, UniProt P11229); assay: Functional mobilization of intracellular calcium (FLIPR) in M1-CHO cells; type: cell-based
T2 construct: expressed in transfected cells; host or cells: CHO (M1-CHO)
T2 sequence (P11229 1-460): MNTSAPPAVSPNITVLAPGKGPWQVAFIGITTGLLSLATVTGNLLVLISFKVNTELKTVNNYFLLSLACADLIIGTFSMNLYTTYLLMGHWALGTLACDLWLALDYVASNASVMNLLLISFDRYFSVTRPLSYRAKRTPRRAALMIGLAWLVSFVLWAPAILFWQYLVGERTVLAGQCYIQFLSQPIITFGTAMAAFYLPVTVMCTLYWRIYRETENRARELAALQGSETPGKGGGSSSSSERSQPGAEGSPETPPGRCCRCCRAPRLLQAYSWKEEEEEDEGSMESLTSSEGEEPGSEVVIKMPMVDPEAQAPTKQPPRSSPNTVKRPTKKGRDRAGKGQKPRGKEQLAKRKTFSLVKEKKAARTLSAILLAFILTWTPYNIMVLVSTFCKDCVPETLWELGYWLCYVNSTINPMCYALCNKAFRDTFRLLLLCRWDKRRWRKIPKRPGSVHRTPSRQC
In short: as §1

[1] = M4 receptor, calcium mobilization
[2] = M4 receptor, calcium mobilization, read-out: M4 Efficacy
[3] = M1 receptor, calcium mobilization
[4] = M1 receptor, calcium mobilization, read-out: M1 Efficacy
[5] = Table 4, 100% efficacy is the maximum response obtained with the Carbachol control
[6] = Table 4, M4 receptor, calcium mobilization (FLIPR)
[7] = Table 4, M1 receptor, calcium mobilization (FLIPR)
[8] = Table 4, modulating M4 receptor
[9] = Table 4, modulating M1 receptor

Row | SMILES | Emax (M4 muscarinic receptor; [5]) [%] | M4 Activity (M4 muscarinic receptor; [6]) | Emax (M1 muscarinic receptor; [5]) [%] | M1 Activity (M1 muscarinic receptor; [7]) | further results
1 | CCNC(=O)N1CC2(CCN(C3CC4CCC(C3)N4C(=O)OCC)CC2)c2cc(F)ccc21 (stereo not drawn) [compound 255] |  |  |  |  | M4 Activity (M4 muscarinic receptor; [1]): x (activity was measured to be greater than 1.0 μM); Emax (M4 muscarinic receptor; [2]): < 65%; M1 Activity (M1 muscarinic receptor; [3]): x (activity was measured to be greater than 1.0 μM); Emax (M1 muscarinic receptor; [4]): < 65%
2 | Clc1ccc2c(c1)C1(CCO2)CCN(C[C@H]2C[C@H]3C=C[C@H]2C3)CC1 [compound 64] |  |  |  |  | M4 Activity (M4 muscarinic receptor; [1]): xx (activity was measured to be between 0.1 μM and 1.0 μM); Emax (M4 muscarinic receptor; [2]): < 65%; M1 Activity (M1 muscarinic receptor; [3]): xxx (activity was measured to be less than 0.1 μM); Emax (M1 muscarinic receptor; [4]): < 65%
3 | COC(=O)N1CCCC(CCN2CCC3(CCC(NC(C)=O)c4ccccc43)CC2)C1 (stereo not drawn) [compound 936] | < 25 | x (activity was measured to be greater than 5.0 μM) | 25 to 100 | xxx (activity was measured to be less than 2.0 μM) | 
4 | CCOC(=O)N1C2CCC1CC(N1CCCC3(CC1)CN(C(C)=O)c1ccc(F)cc13)C2 (stereo not drawn) [compound 746] | 25 to 100 |  | 25 to 100 |  | M4 Activity (M4 muscarinic receptor; [8]): xxx (activity was measured to be less than 2.0 μM); M1 Activity (M1 muscarinic receptor; [9]): xxx (activity was measured to be less than 2.0 μM)
5 | CC(=O)N1CC2(CCN(C3CCN(c4cnc(C)c(C)n4)CC3)CC2)c2ccccc21 [compound 953] | 25 to 100 | xxx (activity was measured to be less than 2.0 μM) | 25 to 100 | xx (activity was measured to be between 2.0 μM and 5.0 μM) | 
6 | CCCCOC(=O)N1CCC(N2CCC3(CC2)CN(C(C)=O)c2ccccc23)CC1 [compound 683] | < 25 |  | 25 to 100 |  | M4 Activity (M4 muscarinic receptor; [8]): x (activity was measured to be greater than 5.0 μM); M1 Activity (M1 muscarinic receptor; [9]): xx (activity was measured to be between 2.0 μM and 5.0 μM)
7 | CC(=O)N1CC2(CCN(C[C@H]3CCN(c4cnccn4)C3)CC2)c2c(C)cccc21 [compound 860] | 25 to 100 | xxx (activity was measured to be less than 2.0 μM) | 25 to 100 | xxx (activity was measured to be less than 2.0 μM) | 
8 | CC(=O)N1CC2(CCN(C3CCC(C(C)C)CC3)CC2)c2cc(F)ccc21 (stereo not drawn) [compound 226] |  |  |  |  | M4 Activity (M4 muscarinic receptor; [1]): x (activity was measured to be greater than 1.0 μM); Emax (M4 muscarinic receptor; [2]): < 65%; M1 Activity (M1 muscarinic receptor; [3]): x (activity was measured to be greater than 1.0 μM); Emax (M1 muscarinic receptor; [4]): < 65%
9 | CCOC(=O)N1CCC(N2CCC3(CC2)CN(C(=O)c2ccncc2)c2ccc(F)cc23)CC1 [compound 260] |  |  |  |  | M4 Activity (M4 muscarinic receptor; [1]): x (activity was measured to be greater than 1.0 μM); Emax (M4 muscarinic receptor; [2]): < 65%; M1 Activity (M1 muscarinic receptor; [3]): xxx (activity was measured to be less than 0.1 μM); Emax (M1 muscarinic receptor; [4]): 65 to 85%
10 | CCOC(=O)N1C2CCC1CC(N1CCC3(CC[C@H](NC(C)=O)c4ccccc43)CC1)C2 (stereo partly drawn) [compound 810] | 25 to 100 | xxx (activity was measured to be less than 2.0 μM) | 25 to 100 | xxx (activity was measured to be less than 2.0 μM) | 
11 | CC(=O)NC1CC2(CCN(C3CCCC3)CC2)c2ccccc21 (stereo not drawn) [compound 922] | 25 to 100 | x (activity was measured to be greater than 5.0 μM) | 25 to 100 | x (activity was measured to be greater than 5.0 μM) | 
12 | C#CCOC(=O)N1CC[C@@H](CN2CCC3(CC2)CN(C(C)=O)c2ccccc23)C1 [compound 816] | > 100 | xxx (activity was measured to be less than 2.0 μM) | > 100 | xxx (activity was measured to be less than 2.0 μM) | 
13 | CCC1CCC(N2CCC3(CC2)CN(C(C)=O)c2ccc(F)cc23)CC1 (stereo not drawn) [compound 27] |  |  |  |  | M4 Activity (M4 muscarinic receptor; [1]): xxx (activity was measured to be less than 0.1 μM); Emax (M4 muscarinic receptor; [2]): 65 to 85%; M1 Activity (M1 muscarinic receptor; [3]): xxx (activity was measured to be less than 0.1 μM); Emax (M1 muscarinic receptor; [4]): 65 to 85%
14 | COc1cc2c(cc1OC)C1(CCN([C@H]3CC4CC[C@@H]3C4)CC1)C[C@@H]2NC(C)=O [compound 1002] | < 25 | x (activity was measured to be greater than 5.0 μM) | < 25 | x (activity was measured to be greater than 5.0 μM) | 
15 | CCOC(=O)N1CCC(N2CCC3(CC2)CN(C(C)=O)c2ccc(-c4ccc(F)cc4)cc23)CC1 [compound 950] | 25 to 100 | xx (activity was measured to be between 2.0 μM and 5.0 μM) | 25 to 100 | xx (activity was measured to be between 2.0 μM and 5.0 μM) | 
16 | CCOC(=O)N1CCC(N2CCC3(CC[C@H](NC(C)=O)c4ccccc43)CC2)CC1 [compound 537] | 25 to 100 |  | 25 to 100 |  | M4 Activity (M4 muscarinic receptor; [8]): xxx (activity was measured to be less than 2.0 μM); M1 Activity (M1 muscarinic receptor; [9]): xxx (activity was measured to be less than 2.0 μM)
17 | CC(=O)N[C@H]1CCC2(CCN(CC3CCOC3)CC2)c2ccccc21 (stereo partly drawn) [compound 602] | 25 to 100 |  | 25 to 100 |  | M4 Activity (M4 muscarinic receptor; [8]): xx (activity was measured to be between 2.0 μM and 5.0 μM); M1 Activity (M1 muscarinic receptor; [9]): xxx (activity was measured to be less than 2.0 μM)
18 | O=C(N[C@H]1CC2(CCN(CC3CCCCC3)CC2)c2ccccc21)N1CCCC1 [compound 946] | < 25 | xxx (activity was measured to be less than 2.0 μM) | < 25 | x (activity was measured to be greater than 5.0 μM) | 
19 | CC(=O)N1CC2(CCN(CC3=CCC4C[C@@H]3C4(C)C)CC2)c2cc(F)ccc21 [compound 845] | < 25 | x (activity was measured to be greater than 5.0 μM) | < 25 | x (activity was measured to be greater than 5.0 μM) | 
20 | O=C(N[C@H]1CCC2(CCN(CC3CC4C=CC3C4)CC2)c2ccccc21)C1CC1 (stereo partly drawn) [compound 576] | 25 to 100 |  | 25 to 100 |  | M4 Activity (M4 muscarinic receptor; [8]): xxx (activity was measured to be less than 2.0 μM); M1 Activity (M1 muscarinic receptor; [9]): xxx (activity was measured to be less than 2.0 μM)
21 | Fc1ccc2c(c1)C1(CCN(C3CCOCC3)CC1)CN2 [compound 299] |  |  |  |  | M4 Activity (M4 muscarinic receptor; [1]): x (activity was measured to be greater than 1.0 μM); Emax (M4 muscarinic receptor; [2]): 65 to 85%; M1 Activity (M1 muscarinic receptor; [3]): x (activity was measured to be greater than 1.0 μM); Emax (M1 muscarinic receptor; [4]): 65 to 85%
22 | CC(=O)N1CC2(CCN(CC3=C(C)C=CCC3(C)C)CC2)c2cc(F)ccc21 [compound 600] | < 25 |  | < 25 |  | M4 Activity (M4 muscarinic receptor; [8]): x (activity was measured to be greater than 5.0 μM); M1 Activity (M1 muscarinic receptor; [9]): x (activity was measured to be greater than 5.0 μM)
23 | O=C(OC1CCC1)N1CC2(CCN(C3CC4CCC(C3)N4C(=O)O[C@H]3CCOC3)CC2)c2cc(F)ccc21 (stereo partly drawn) [compound 125] |  |  |  |  | M4 Activity (M4 muscarinic receptor; [1]): xx (activity was measured to be between 0.1 μM and 1.0 μM); Emax (M4 muscarinic receptor; [2]): < 65%; M1 Activity (M1 muscarinic receptor; [3]): xxx (activity was measured to be less than 0.1 μM); Emax (M1 muscarinic receptor; [4]): 65 to 85%
24 | CCC(=O)CCN1CCC(N2CCC3(CC2)CN(C(C)=O)c2ccc(F)cc23)CC1 [compound 454] | < 25 |  | < 25 |  | M4 Activity (M4 muscarinic receptor; [8]): x (activity was measured to be greater than 5.0 μM); M1 Activity (M1 muscarinic receptor; [9]): x (activity was measured to be greater than 5.0 μM)
25 | CC(=O)N1CC2(CCN(CC3CCN(C(=O)O[C@@H]4CCOC4)CC3)CC2)c2cc(C)ccc21 [compound 550] | < 25 |  | < 25 |  | M4 Activity (M4 muscarinic receptor; [8]): x (activity was measured to be greater than 5.0 μM); M1 Activity (M1 muscarinic receptor; [9]): x (activity was measured to be greater than 5.0 μM)
26 | CCOC(=O)N1CCC(N2CCC3(CC2)C(=O)N(C)c2ccccc23)CC1 [compound 31] |  |  |  |  | M4 Activity (M4 muscarinic receptor; [1]): xxx (activity was measured to be less than 0.1 μM); Emax (M4 muscarinic receptor; [2]): 65 to 85%; M1 Activity (M1 muscarinic receptor; [3]): xxx (activity was measured to be less than 0.1 μM); Emax (M1 muscarinic receptor; [4]): > 85%
27 | CCCOC(=O)N1C2CCC1CC(N1CCC3(CC1)CN(C(=O)OC)c1ccc(F)cc13)C2 (stereo not drawn) [compound 386] |  |  |  |  | EC50 (M4 muscarinic receptor; M4-CHO cells, calcium mobilization (FLIPR)): 100 to 1000 nM; Emax (M4 muscarinic receptor; M4-CHO cells, calcium mobilization (FLIPR), read-out: M4 Efficacy): < 65%; EC50 (M1 muscarinic receptor; M1-CHO cells, calcium mobilization (FLIPR)): 100 to 1000 nM; Emax (M1 muscarinic receptor; M1-CHO cells, calcium mobilization (FLIPR), read-out: M1 Efficacy): < 65%
